Where no end group is shown, it is not given here. [ ]: non-standard residue; d: D form. βAsp(indolinyl) = β-Asp(indolinyl) N-terminal residue
Columns and labels:
Wistar rats [1] = assay: 0.5% dextran-induced non-neurogenic inflammation (foot swelling, plethysmometer) after chronic denervation; type: in vivo, rat
Experimental: This test is based on the fact that a non-neurogenic, so-called clearly chemical inflammation can be induced by chemical excitation (e.g. by dextran, carrageenin, formalin) on a chronically denervated body area at least 5 days following the transsection of the nerve. These chemical agents release inflammation-inducing substances (histamine, bradykinin, PAF, prostaglandins and leucotrienes) from immunocytes, chiefly from mast cells.
Dextran solution (0.1 ml, 0.5%) is administered into both feet, underneath the plantar skin of Wistar rats (5 to 7 animals in each group) anaesthetized by nembutal (40 mg/kg i.v.) 5 days after bilateral denervation (transsection of the saphenous and sciatic nerves) of the lower limbs. The pretreated animals received somatostatin (SS), ocreotide or TT-232 (10 μg/kg i.p.) 10 minutes earlier. Before the administration of dextran (0 minute value), then after 10, 20 and 30 minutes, respectively, the swelling of the feet was measured by using a plethysmometer (Ugo Basil). Dextran elicits the so-called clearly chemical inflammation in the feet deprived of nerve supply (innervation) through the transmitters released from the mast cells.
A dose/effect ratio was determined for each substance.

Wistar rats [2] = assay: 1% mustard oil-induced neurogenic inflammation (Evans blue plasma extravasation, foot skin); type: in vivo, rat; conditions: for Decrease % (Evans blue extravasation vs control) / Evans blue extravasation: 20 μg/kg i.p.; for Decrease % (Evans blue extravasation vs control): 1% mustard oil; for Evans blue extravasation: 1% mustard oil on feet, control 169.525; for inhibition of mustard oil-induced neurogenic inflammation (in words): 20 μg/kg, 20 minutes after i.p. administration
Experimental: Thirty minutes after acute bilateral denervation of the lower limbs (transsection of the saphenous and sciatic nerves), 50 mg/kg of Evans blue dye was administered to the tail vein of nembutal-anaesthetized (pentobarbital, 40 mg/kg i.p.) Wistar rats (150-220 g body weight; 5 to 7 animals in each group). […] The mustard oil induces a so-called neurogenic inflammation by the selective stimulation of the peripheral endings of CSPAN's and by releasing the mediators being present therein (chiefly tachykinins and CGRP); this neurogenic inflammation appears as a vasodilatation in the area of arterioles and in the form of a plasma extravasation at the venular side. Since the dye Evans blue is bound to serum albumin in the vascular bed, its precipitation and accumulation in the upper skin surface of foot are proportional to the extent of plasma extravasation. Thus, the quantitative determination of intensity of the inflammation becomes possible. After the painting with mustard oil, the animals were bled, the foot dorsum skins were cut out and their weights were determined. The amount of dye extracted during 72 hours of incubation in formamide was determined at 620 nm on a spectrophotometer (Spectromon 195). The amount (expressed as μg) of the extravasated Evans blue related to one g of wet tissue was calculated by means of the following formula:
Evans blue (μg/g)=E×V×k/m
E is the light absorption of the solution, V means the volume (ml) of the solution, m is the weight […] of the skin cut out from the foot dorsum skin; and k is a constant determined on the basis of a dilution series, which is characteristic of the dye solution.

Wistar rats [3] = assay: Analgetic action: vegetative (pseudoaffective) reflex responses to mustard oil and capsaicin under urethane anaesthesia; type: in vivo, rat; parameters: Increase in heart rate: unit not given here; conditions: 10 μg/kg i.p.
Excerpt: This test is based on the synchronous registration of several components of so-called pseudoaffective reflex responses, which can be induced on animals by pain-producing stimuli [Lim, R. K. S.: J. Comp. Neurol 118, 269-294 (1962)] under urethane anaesthesia.
A significant blood pressure increase of 45 mmHg as an average pressor response, heart rate increase of 85 (as an average) and hyperpnoea (the number of respirations increases by 61 per minute as an average) can be observed in control animals on the effect of strong chemonociceptive stimuli (painting of the lower limbs with 1% mustard oil or dropping a capsaicin solution of 100 μg/ml concentration into the eye) under urethane anaesthesia.
The blood pressure, heart rate and respiration of intact Wistar rats (5 to 7 animals in each group, with a body weight of 250 to 350 g) were continuously registered for 40 minutes through an arterial cannula as well as double ramifying trachea cannula. Ten minutes before beginning the measurement, the pretreated animals received intraperitoneally 10 μg/kg of somatostatin (SS), octreotide or TT-232, respectively. Both lower limbs of the animals were painted with mustard oil in the 3rd minute and capsaicin solution was dropped into their eyes in the 23rd minute. The vegetative responses given on these nociceptive stimuli were evaluated by using a specific computer program.

neurogenic inflammation = conditions: sodium salicylate 250 mg/kg i.v.; amidopyridine 200 mg/kg p.o.; phenylbutazone 100 mg/kg i.v.; flufenamic acid 20 mg/kg i.v.; indomethacin 10 mg/kg p.o.; cited from earlier work
[4] = Table 2.a, 10 mg/kg, 10 minutes
[5] = Table 2.a, 10 mg/kg, 30 minutes

For `O=C(O)Cc1ccccc1Nc1c(Cl)cccc1Cl` [Diclofenac, reference compound], the foot swelling % (Wistar rats [1]; Table 2.a, 5 mg/kg, 20 minutes) was 48.73 ± 4.84%, the foot swelling % (Wistar rats [1]; Table 2.a, 5 mg/kg, 30 minutes) was 53.07 ± 3.95% and the foot swelling % (Wistar rats [1]; [4]) was 24.35 ± 3.31%. It also gave a foot swelling % (Wistar rats [1]; [5]) of 42.61 ± 3.55%, a foot swelling % (Wistar rats [1]; Table 2.a, 20 mg/kg, 10 minutes) of 21.87 ± 2.84% and a foot swelling % (Wistar rats [1]; Table 2.a, 30 mg/kg, 10 minutes) of 26.02 ± 1.79%. It also gave a foot swelling % (Wistar rats [1]; Table 2.a, 30 mg/kg, 30 minutes) of 40.20 ± 1.73%.
With `O=C(NN=Cc1ccc(O)c(O)c1)C(=O)Nc1cccc([N+](=O)[O-])c1` [HDL 2722, 3′-nitrophenylamino-2-oxoacetyl-3″,4″-dihydroxyphenyl-hydra-zone] the “inhibition of 1% mustard oil-induced neurogenic inflammation (plasma extravasation)” value (Wistar rats [2]; 50 μg) was 62%.
`Cc1cnc(NC(=O)C2=C(O)c3ccccc3S(=O)(=O)N2C)s1` [Meloxicam, reference compound] showed a foot swelling % (Wistar rats [1]; Table 2.a, 0.2 mg/kg, 10 minutes) of 27.60 ± 3.56%, a foot swelling % (Wistar rats [1]; Table 2.a, 0.2 mg/kg, 20 minutes) of 39.99 ± 3.65% and a foot swelling % (Wistar rats [1]; Table 2.a, 0.2 mg/kg, 30 minutes) of 45.81 ± 2.9%. It also gave a foot swelling % (Wistar rats [1]; Table 2.a, 0.5 mg/kg, 10 minutes) of 27.24 ± 3.56%, a foot swelling % (Wistar rats [1]; Table 2.a, 0.5 mg/kg, 20 minutes) of 38.86 ± 2.86% and a foot swelling % (Wistar rats [1]; Table 2.a, 0.5 mg/kg, 30 minutes) of 44.92 ± 2.99%. The foot swelling % (Wistar rats [1]; Table 2.a, 1 mg/kg, 10 minutes) was 24.34 ± 2.57%, the foot swelling % (Wistar rats [1]; Table 2.a, 1 mg/kg, 20 minutes) was 36.46 ± 3.44% and the foot swelling % (Wistar rats [1]; Table 2.a, 1 mg/kg, 30 minutes) was 46.63 ± 3.2%. For the same compound, the foot swelling % (Wistar rats [1]; [4]) was 20.39 ± 2.26%, the foot swelling % (Wistar rats [1]; Table 2.a, 10 mg/kg, 20 minutes) was 33.36 ± 1.85% and the foot swelling % (Wistar rats [1]; [5]) was 39.34 ± 3.75%.
With `C[C@@H](O)[C@@H]1NC(=O)[C@H](CCCCN)NC(=O)[C@@H](Cc2c[nH]c3ccccc23)NC(=O)[C@H](Cc2ccccc2)NC(=O)[C@@H](NC(=O)[C@H](N)Cc2ccccc2)CSSC[C@@H](C(=O)N[C@H](CO)[C@@H](C)O)NC1=O` [Octreotide, reference compound] the “Decrease % (Evans blue extravasation vs control)” value (from here on “Decrease %”) (Wistar rats [2]) was 3.952%, the Evans blue extravasation (Wistar rats [2]) was 162.826 µg/g and the “inhibition of mustard oil-induced neurogenic inflammation (in words)” value (“inhibition … (in words)” for short) (Wistar rats [2]) was “inactive”. For the same compound, the “prevention of dextran-induced non-neurogenic inflammation (in words)” value (Wistar rats [1]; 10 μg/kg, even 40 minutes following the pretreatment) was “completely inactive”, the foot swelling % (Wistar rats [1]; Table 2, 10 μg/kg i.p. 10 min before dextran, 10 minutes, control 32.97) was 31.36% and the foot swelling % (Wistar rats [1]; Table 2, 10 μg/kg i.p. 10 min before dextran, 20 minutes, control 49.695) was 47.7%. For the same compound, the foot swelling % (Wistar rats [1]; Table 2, 10 μg/kg i.p. 10 min before dextran, 30 minutes, control 56.68) was 54.8%, the “protection against pseudoaffective reflex triad elicited by mustard oil and capsaicin (in words)” value (Wistar rats [3]; 10 minutes before mustard oil) was “completely inactive” and the “Increase in respiration rate” value (Wistar rats [3]; after dropping capsaicin solution into the eye, control 47.5) was 42 per minute. For the same compound, the “Increase in mean arterial pressure” value (Wistar rats [3]; after dropping capsaicin solution into the eye, control 55) was 47.13 mmHg, the “Increase in heart rate” value (Wistar rats [3]; after dropping capsaicin solution into the eye, control 143) was 127 and the “Increase in mean arterial pressure” value (Wistar rats [3]; after painting the feet by mustard oil, control 45.4) was 43.2 mmHg. For the same compound, the “Increase in respiration rate” value (Wistar rats [3]; after painting the feet by mustard oil, control 60.75) was 45 per minute and the “Increase in heart rate” value (Wistar rats [3]; after painting the feet by mustard oil, control 84.8) was 81.2.
For `Cc1c(N(C)C)c(=O)n(-c2ccccc2)n1C` [amidopyridine], the “significant inhibitory effect on neurogenic inflammation” value (from here on “significant inhibitory effect”) (neurogenic inflammation) is listed as “none”.
For `O=C(O)c1ccccc1Nc1cccc(C(F)(F)F)c1` [flufenamic acid], the “significant inhibitory effect” value (neurogenic inflammation) is given as “none”.
For `COc1ccc2c(c1)c(CC(=O)O)c(C)n2C(=O)c1ccc(Cl)cc1` [indomethacin], the “significant inhibitory effect” value (neurogenic inflammation) is listed as “none”.
In the case of `O=C([O-])c1ccccc1O.[Na+]` [sodium salicylate], the “significant inhibitory effect” value (neurogenic inflammation) is given as “none”.
In the case of “D-Phe-Cys-Tyr-D-Trp-Gly-Cys-Thr-NH2 ([dF]CY[dW]GCT-NH2; cysteine pairing not given here) [VZ-934]”, the “Decrease %” value (Wistar rats [2]) is reported as 44.7%, the Evans blue extravasation (Wistar rats [2]) is reported as 93.7 µg/g and the “inhibition … (in words)” value (Wistar rats [2]) is reported as “significantly inhibited”.
In the case of “D-Phe-Cys-Tyr-D-Trp-Lys-Cys-Trp-NH2 ([dF]CY[dW]KCW-NH2; cysteine pairing not given here) [VZ-924]”, the “Decrease %” value (Wistar rats [2]) is reported as 55.62%, the Evans blue extravasation (Wistar rats [2]) is reported as 75.26 µg/g and the “inhibition … (in words)” value (Wistar rats [2]) is reported as “significantly inhibited”.
In the case of “D-Phe-Cys-Tyr-Gly-Lys-Cys-Thr-NH2 ([dF]CYGKCT-NH2; cysteine pairing not given here) [VZ-1021]”, the “Decrease %” value (Wistar rats [2]) is reported as 54.72%, the Evans blue extravasation (Wistar rats [2]) is reported as 76.72 µg/g and the “inhibition … (in words)” value (Wistar rats [2]) is reported as “significantly inhibited”.
In the case of “β-Asp(indolinyl)-Cys-Tyr-D-Trp-Lys-Cys-Thr-NH2 ({βAsp(indolinyl)}-CY[dW]KCT-NH2; cysteine pairing not given here) [VZ-927]”, the “Decrease %” value (Wistar rats [2]) is reported as 60.44%, the Evans blue extravasation (Wistar rats [2]) is reported as 67.07 µg/g and the “inhibition … (in words)” value (Wistar rats [2]) is reported as “significantly inhibited”.
